Measured values taken from patent publication US20230219904A1 (SYNGENTA CROP PROTECTION AG, priority 2020, published 2023).

Columns and labels:
Format in all cases: in vivo
Details in all cases: evaluated after 13 days
[1] = tested on: Ipomoea hederacea (IPOHE); experiment: Post-emergence herbicidal glasshouse test (Table B1)
Procedure: (§1) Seeds of a variety of test species are sown in standard soil in pots (Lolium perenne (LOLPE), Amaranthus retoflexus (AMARE), Abutilon theophrasti (ABUTH), Setaria faberi (SETFA), Echinochloa crus-galh (ECHCG), Ipomoea hederacea (IPOHE)). After cultivation for one day (pre-emergence) or after 8 days cultivation (post-emergence) under controlled conditions in a glasshouse (at 24/16° C., day/night; 14 hours light; 65% humidity), the plants are sprayed with an aqueous spray solution derived from the formulation of the technical active ingredient in acetone/water (50:50) solution containing 0.5% Tween 20 (polyoxyethelyene sorbitan monolaurate, CAS RN 9005-64-5). Compounds are applied at 500 g/h unless otherwise indicated. The test plants are then grown in a glasshouse under controlled conditions in a glasshouse (at 24/16° C., day/night; 14 hours light; 65% humidity) and watered twice daily. After 13 days for pre and post-emergence, the test is evaluated for the percentage damage caused to the plant. The biological activities are shown in the following table on a five-point scale (5=80-100%; 4=60-79%; 3=40-59%; 2=20-39%; 1=0-19%).

[2] = tested on: Amaranthus retoflexus (AMARE); experiment: as above
Procedure: as §1

[3] = tested on: Echinochloa crus-galh (ECHCG); experiment: as above
Procedure: as §1

Setaria faberi (SETFA) [4] = experiment: as above
Procedure: as §1

[5] = tested on: Ipomoea hederacea (IPOHE); experiment: Pre-emergence herbicidal glasshouse test (Table B1)
Procedure: as §1

[6] = tested on: Amaranthus retoflexus (AMARE); experiment: as above
Procedure: as §1

[7] = tested on: Abutilon theophrasti (ABUTH); experiment: as above
Procedure: as §1

[8] = tested on: Echinochloa crus-galh (ECHCG); experiment: as above
Procedure: as §1

Setaria faberi (SETFA) [9] = experiment: as above
Procedure: as §1

Row | Compound | POST Application IPOHE, percentage damage on five-point scale ([1]; applied at 125 g/ha) | POST Application AMARE, percentage damage on five-point scale ([2]; applied at 125 g/ha) | POST Application ECHCG, percentage damage on five-point scale ([3]; applied at 125 g/ha) | POST Application SETFA, percentage damage on five-point scale (Setaria faberi (SETFA) [4]; applied at 125 g/ha) | PRE Application IPOHE, percentage damage on five-point scale ([5]; applied at 125 g/ha) | PRE Application AMARE, percentage damage on five-point scale ([6]; applied at 125 g/ha) | PRE Application ABUTH, percentage damage on five-point scale ([7]; applied at 125 g/ha) | PRE Application ECHCG, percentage damage on five-point scale ([8]; applied at 125 g/ha) | PRE Application SETFA, percentage damage on five-point scale (Setaria faberi (SETFA) [9]; applied at 125 g/ha) | POST Application IPOHE, percentage damage on five-point scale ([1]; applied at 500 g/h) | POST Application AMARE, percentage damage on five-point scale ([2]; applied at 500 g/h) | POST Application ECHCG, percentage damage on five-point scale ([3]; applied at 500 g/h) | POST Application SETFA, percentage damage on five-point scale (Setaria faberi (SETFA) [4]; applied at 500 g/h) | PRE Application IPOHE, percentage damage on five-point scale ([5]; applied) | PRE Application AMARE, percentage damage on five-point scale ([6]; applied at 500 g/h) | PRE Application ABUTH, percentage damage on five-point scale ([7]; applied at 500 g/h) | PRE Application ECHCG, percentage damage on five-point scale ([8]; applied at 500 g/h) | PRE Application SETFA, percentage damage on five-point scale (Setaria faberi (SETFA) [9]; applied at 500 g/h)
1 | CCOCCC(=O)Nc1c(OC(F)(F)F)ccc(C(=O)Nc2nnnn2CC)c1Cl [Compound 1.077] | 4 (4=60-79%) | 5 (5=80-100%) | 5 (5=80-100%) | 5 (5=80-100%) | 5 (5=80-100%) | 5 (5=80-100%) | 5 (5=80-100%) | 5 (5=80-100%) | 3 (3=40-59%) | – | – | – | – | – | – | – | – | –
2 | CCC(=O)Nc1c(OC(F)(F)F)ccc(C(=O)Nc2nnnn2C)c1C [Compound 1.078] | 4 (4=60-79%) | 5 (5=80-100%) | 5 (5=80-100%) | 5 (5=80-100%) | 4 (4=60-79%) | 5 (5=80-100%) | 5 (5=80-100%) | 5 (5=80-100%) | 4 (4=60-79%) | – | – | – | – | – | – | – | – | –
3 | CCC(=O)Nc1c(OC(F)(F)F)ccc(C(=O)Nc2nnnn2CC)c1C [Compound 1.079] | 4 (4=60-79%) | 4 (4=60-79%) | 5 (5=80-100%) | 4 (4=60-79%) | 4 (4=60-79%) | 5 (5=80-100%) | 5 (5=80-100%) | 5 (5=80-100%) | 4 (4=60-79%) | – | – | – | – | – | – | – | – | –
4 | Cn1nnnc1NC(=O)c1ccc(OC(F)F)c(NC(=O)c2ncc(C(F)(F)F)cc2Cl)c1Cl [Compound 1.081] | 4 (4=60-79%) | 4 (4=60-79%) | 3 (3=40-59%) | 3 (3=40-59%) | 1 (1=0-19%) | 5 (5=80-100%) | 5 (5=80-100%) | 1 (1=0-19%) | 1 (1=0-19%) | – | – | – | – | – | – | – | – | –
5 | CCC(=O)N(CC)c1c(OC(F)F)ccc(C(=O)Nc2nnnn2C)c1C(F)(F)F [Compound 1.091] | 3 (3=40-59%) | 4 (4=60-79%) | 5 (5=80-100%) | 4 (4=60-79%) | 3 (3=40-59%) | 5 (5=80-100%) | 5 (5=80-100%) | 5 (5=80-100%) | 4 (4=60-79%) | – | – | – | – | – | – | – | – | –
6 | CCn1nnnc1NC(=O)c1ccc(OC(F)(F)F)c(NC(=O)c2ncccc2F)c1Cl [Compound 1.094] | – | – | – | – | – | – | – | – | – | 5 (5=80-100%) | 5 (5=80-100%) | 5 (5=80-100%) | 5 (5=80-100%) | 1 (1=0-19%) | 5 (5=80-100%) | 1 (1=0-19%) | 1 (1=0-19%) | 1 (1=0-19%)
